The NIST ThermoML archive (doi:10.1016/j.jct.2011.02.012)
± gives the expanded uncertainty stated by the source.

Experiment: activity coefficient (dimensionless); of the first substance listed, at infinite dilution; xn = mol fraction of the nth substance listed
Conditions: Liquid, Chromatography, x1 = 0

| Structure (SMILES) | activity coefficient (298.15 K) | activity coefficient (308.15 K) | activity coefficient (318.15 K) | activity coefficient (328.15 K) | activity coefficient (338.15 K) | activity coefficient (348.15 K) | activity coefficient (358.15 K) |
| --- | --- | --- | --- | --- | --- | --- | --- |
| COC(C)(C)C [2-methoxy-2-methylpropane] + CCn1cc[n+](C)c1.N#C[B-](C#N)(C#N)C#N | 2.82 ± 0.19 | 2.86 ± 0.19 | 2.9 ± 0.2 | 2.94 ± 0.2 | 2.97 ± 0.2 | 3.01 ± 0.2 | 3.04 ± 0.21 |
| C=CCCCCC [1-heptene] + CCn1cc[n+](C)c1.N#C[B-](C#N)(C#N)C#N | 22 ± 1.5 | 20.4 ± 1.4 | 19.3 ± 1.3 | 18.3 ± 1.3 | 17.3 ± 1.2 | 16.6 ± 1.1 | 15.7 ± 1.1 |
| C=CCCC [1-pentene] + CCn1cc[n+](C)c1.N#C[B-](C#N)(C#N)C#N | 9.24 ± 0.63 | 8.83 ± 0.6 | 8.56 ± 0.58 | 8.24 ± 0.56 | 7.97 ± 0.54 | 7.71 ± 0.53 | 7.52 ± 0.51 |
| C#CCCCC [1-hexyne] + CCn1cc[n+](C)c1.N#C[B-](C#N)(C#N)C#N | 3.77 ± 0.26 | 3.76 ± 0.26 | 3.76 ± 0.26 | 3.75 ± 0.26 | 3.74 ± 0.25 | 3.74 ± 0.25 | 3.73 ± 0.25 |
| CCCCC(C)=O [2-hexanone] + CCn1cc[n+](C)c1.N#C[B-](C#N)(C#N)C#N | – | 1.11 ± 0.07 | 1.12 ± 0.07 | 1.14 ± 0.07 | 1.16 ± 0.07 | 1.17 ± 0.07 | 1.09 ± 0.07 |
| CC(C)=O [acetone] + CCn1cc[n+](C)c1.N#C[B-](C#N)(C#N)C#N | – | 0.443 ± 0.036 | 0.454 ± 0.036 | 0.466 ± 0.036 | 0.475 ± 0.037 | 0.488 ± 0.037 | 0.43 ± 0.035 |
| C#CCCCCCC [1-octyne] + CCn1cc[n+](C)c1.N#C[B-](C#N)(C#N)C#N | 8.66 ± 0.59 | 8.48 ± 0.58 | 8.31 ± 0.57 | 8.15 ± 0.56 | 7.99 ± 0.54 | 7.86 ± 0.54 | 7.73 ± 0.53 |
| CCOCC [diethyl ether] + CCn1cc[n+](C)c1.N#C[B-](C#N)(C#N)C#N | 2.71 ± 0.18 | 2.72 ± 0.19 | 2.73 ± 0.19 | 2.74 ± 0.19 | 2.75 ± 0.19 | 2.76 ± 0.19 | 2.77 ± 0.19 |
| C1CCCCCC1 [cycloheptane] + CCn1cc[n+](C)c1.N#C[B-](C#N)(C#N)C#N | 21.9 ± 1.5 | 19.9 ± 1.4 | 18.6 ± 1.3 | 17 ± 1.2 | 15.8 ± 1.1 | 14.8 ± 1 | 13.9 ± 1 |
| Cc1ccccc1C [1,2-dimethylbenzene] + CCn1cc[n+](C)c1.N#C[B-](C#N)(C#N)C#N | 2.17 ± 0.15 | 2.18 ± 0.15 | 2.2 ± 0.15 | 2.21 ± 0.15 | 2.22 ± 0.15 | 2.24 ± 0.15 | 2.25 ± 0.15 |
| CCCC(=O)CC [3-hexanone] + CCn1cc[n+](C)c1.N#C[B-](C#N)(C#N)C#N | – | 1.2 ± 0.08 | 1.22 ± 0.08 | 1.24 ± 0.08 | 1.25 ± 0.08 | 1.28 ± 0.08 | 1.17 ± 0.07 |
| CCC(C)(C)OC [2-methoxy-2-methylbutane] + CCn1cc[n+](C)c1.N#C[B-](C#N)(C#N)C#N | 4.15 ± 0.28 | 4.19 ± 0.29 | 4.22 ± 0.29 | 4.25 ± 0.29 | 4.28 ± 0.29 | 4.3 ± 0.29 | 4.32 ± 0.29 |
| CC(C)CC(C)(C)C [2,2,4-trimethylpentane] + CCn1cc[n+](C)c1.N#C[B-](C#N)(C#N)C#N | 60.3 ± 4.1 | 54.3 ± 3.7 | 50.4 ± 3.5 | 46.4 ± 3.2 | 42.3 ± 2.9 | 39.5 ± 2.7 | 36.7 ± 2.5 |
| CCCCO [butan-1-ol] + CCn1cc[n+](C)c1.N#C[B-](C#N)(C#N)C#N | 2.72 ± 0.19 | 2.41 ± 0.16 | 2.16 ± 0.15 | 1.95 ± 0.13 | 1.79 ± 0.12 | 1.65 ± 0.11 | 1.53 ± 0.1 |
| Cc1ccccc1 [toluene] + CCn1cc[n+](C)c1.N#C[B-](C#N)(C#N)C#N | 1.65 ± 0.11 | 1.67 ± 0.11 | 1.69 ± 0.11 | 1.71 ± 0.11 | 1.73 ± 0.12 | 1.75 ± 0.12 | 1.76 ± 0.12 |
| C1CCCCC1 [cyclohexane] + CCn1cc[n+](C)c1.N#C[B-](C#N)(C#N)C#N | 16.7 ± 1.1 | 15.2 ± 1 | 14.3 ± 1 | 13.2 ± 0.9 | 12.3 ± 0.8 | 11.6 ± 0.8 | 10.9 ± 0.7 |
| Cc1ccc(C)cc1 [1,4-dimethylbenzene] + CCn1cc[n+](C)c1.N#C[B-](C#N)(C#N)C#N | – | – | 2.45 ± 0.17 | 2.48 ± 0.17 | 2.5 ± 0.17 | 2.52 ± 0.17 | 2.54 ± 0.17 |

Other lines, results leading:

| activity coefficient (298.15 K) | activity coefficient (308.15 K) | activity coefficient (318.15 K) | activity coefficient (328.15 K) | activity coefficient (338.15 K) | activity coefficient (348.15 K) | activity coefficient (358.15 K) | Structure (SMILES) |
| --- | --- | --- | --- | --- | --- | --- | --- |
| 1.1 ± 0.07 | 1.02 ± 0.06 | 0.948 ± 0.06 | 0.886 ± 0.056 | 0.835 ± 0.054 | 0.788 ± 0.051 | 0.748 ± 0.049 | CO [methanol] + CCn1cc[n+](C)c1.N#C[B-](C#N)(C#N)C#N |
| 33.8 ± 2.3 | 30.7 ± 2.1 | 28.9 ± 2 | 26.3 ± 1.8 | 24.5 ± 1.7 | 23.1 ± 1.6 | 21.8 ± 1.5 | CCCCCC [hexane] + CCn1cc[n+](C)c1.N#C[B-](C#N)(C#N)C#N |
| 22 ± 1.5 | 20.1 ± 1.4 | 19.1 ± 1.3 | 17.6 ± 1.2 | 16.6 ± 1.1 | 15.8 ± 1.1 | 14.9 ± 1 | CCCCC [pentane] + CCn1cc[n+](C)c1.N#C[B-](C#N)(C#N)C#N |
| 2.6 ± 0.18 | 2.6 ± 0.18 | 2.61 ± 0.18 | 2.61 ± 0.18 | 2.61 ± 0.18 | 2.61 ± 0.18 | 2.61 ± 0.18 | CCc1ccccc1 [ethylbenzene] + CCn1cc[n+](C)c1.N#C[B-](C#N)(C#N)C#N |
| 2.24 ± 0.15 | 1.99 ± 0.14 | 1.82 ± 0.12 | 1.66 ± 0.11 | 1.51 ± 0.1 | 1.38 ± 0.09 | 1.29 ± 0.08 | O [water] + CCn1cc[n+](C)c1.N#C[B-](C#N)(C#N)C#N |
| 29.7 ± 2 | 26.6 ± 1.8 | 24.7 ± 1.7 | 22.5 ± 1.5 | 20.8 ± 1.4 | 19.2 ± 1.3 | 17.9 ± 1.2 | C1CCCCCCC1 [cyclooctane] + CCn1cc[n+](C)c1.N#C[B-](C#N)(C#N)C#N |
| 14.4 ± 1 | 13.5 ± 0.9 | 12.9 ± 0.9 | 12.2 ± 0.8 | 11.6 ± 0.8 | 11.2 ± 0.8 | 10.6 ± 0.7 | C=CCCCC [hex-1-ene] + CCn1cc[n+](C)c1.N#C[B-](C#N)(C#N)C#N |
| 131 ± 9 | 114 ± 8 | 102 ± 7 | 90.2 ± 6.2 | 81.1 ± 5.6 | 73.2 ± 5 | 66.3 ± 4.5 | CCCCCCCCC [nonane] + CCn1cc[n+](C)c1.N#C[B-](C#N)(C#N)C#N |
| 8.54 ± 0.58 | 8.32 ± 0.57 | 8.07 ± 0.55 | 7.79 ± 0.53 | 7.6 ± 0.5 | 7.43 ± 0.51 | 7.24 ± 0.49 | CCCOCCC [dipropyl ether] + CCn1cc[n+](C)c1.N#C[B-](C#N)(C#N)C#N |
| 203 ± 14 | 177 ± 12 | 156 ± 11 | 137 ± 9 | 122 ± 8 | 108 ± 7 | 96.7 ± 6.6 | CCCCCCCCCC [decane] + CCn1cc[n+](C)c1.N#C[B-](C#N)(C#N)C#N |
| 35 ± 2.4 | 32 ± 2.2 | 29.9 ± 2 | 27.8 ± 1.9 | 25.9 ± 1.8 | 24.5 ± 1.7 | 23.1 ± 1.6 | C=CCCCCCC [oct-1-ene] + CCn1cc[n+](C)c1.N#C[B-](C#N)(C#N)C#N |
| 10.7 ± 0.7 | 9.9 ± 0.7 | 9.5 ± 0.7 | 8.8 ± 0.6 | 8.4 ± 0.6 | 8 ± 0.5 | 7.6 ± 0.5 | C1CCCC1 [cyclopentane] + CCn1cc[n+](C)c1.N#C[B-](C#N)(C#N)C#N |
| 83.2 ± 5.7 | 73.6 ± 5 | 67.4 ± 4.6 | 60.2 ± 4.1 | 54.8 ± 3.8 | 50.2 ± 3.4 | 46 ± 3.1 | CCCCCCCC [octane] + CCn1cc[n+](C)c1.N#C[B-](C#N)(C#N)C#N |
| – | 0.816 ± 0.053 | 0.833 ± 0.054 | 0.847 ± 0.054 | 0.861 ± 0.055 | 0.879 ± 0.056 | 0.796 ± 0.052 | CCCC(C)=O [pentan-2-one] + CCn1cc[n+](C)c1.N#C[B-](C#N)(C#N)C#N |
| 2.01 ± 0.14 | 1.81 ± 0.12 | 1.65 ± 0.11 | 1.5 ± 0.1 | 1.39 ± 0.09 | 1.3 ± 0.08 | 1.21 ± 0.08 | CCCO [propan-1-ol] + CCn1cc[n+](C)c1.N#C[B-](C#N)(C#N)C#N |
